Measurements as given in patent US8173131B2, “Compositions and methods for modulating RSV infection and immunity” (PerkinElmer Health Sciences, Inc., priority 2000, dated 2012).
Like-named read-outs stand apart in the source and are kept apart here.

Columns and labels:
[1] = system: G glycoprotein binding to 293-CX3CR1 cells; parameters: species or system human; details: for percent staining of G glycoprotein on CX3CR1-293 cells in the presence of peptide: 10 nM G glycoprotein, 84% without peptide, FIG. 1
Description: All binding studies were done on ice and either G glycoprotein or human Fkn (R&D Diagnostics, Minneapolis, Minn.) were diluted between 1 nM-100 nM in PBS (GIBCO) containing 1% bovine serum albumin (Sigma) and incubated with the 293-CX3CR1 cells or 293 control cells for 30 min at 4° C. […] Without washing, 100 pM of either Fkn or G glycoprotein was added and incubated for 30 min at 4° C. The cells were washed, blocked with FcγRIII blocking antibody (HB197) for 30 min on ice, washed and stained as appropriate with either an anti-G glycoprotein monoclonal antibody cocktail (132-5B, 132-5G, 130-2G, 232-IF) or a biotinylated anti-G glycoprotein monoclonal antibody cocktail (130-2G, 131-2G) or anti-Fkn monoclonal antibody (51637.11; R&D Diagnostics). Concentrations of 1 μg of anti-G glycoprotein monoclonal antibody (131-2G)^34, rabbit anti-CX3CR1 sera^33, and anti-CX3CR1 monoclonal antibody containing 10 μg/ml heparin were used in all experiments. […] Staining was detected with absorbed FITC-goat anti-mouse (H & L chain) monoclonal antibody (PharMingen, San Diego, Calif.) or streptavidin-PE (PharMingen) using flow cytometry (FACScan, Becton-Dickinson, Mountain View, Calif.). A 76 amino acid ^125I-Fkn polypeptide comprising the […] (NEN, Boston, Mass.) was used in radioligand studies^33. As a control, the void volume following purified G glycoprotein passaged over an anti-G glycoprotein antibody (130-2G) affinity column was examined by flow cytometry for binding to either 293 or 293-CX3CR1 cells.
(§1) For peptide inhibition studies, a series of G glycoprotein peptides were identified in the amino acid sequence of the A2 strain of RSV (GENBANK, attachment protein locus 1912305, Table 4). The peptides were synthesized using a simultaneous, multiple solid-phase peptide synthesis method on a peptide synthesizer (Perkin-Elmer Applied Biosystems, Berkeley, Calif.), and tested for homogeneity by reverse-phase liquid chromatography and capillary electrophoresis (www.biotech.cdc.gov/protein/methods). Inhibition assays were performed as described for the binding studies above.
(§2) To determine if G glycoprotein bound 293-CX3CR1 cells via CX3CR1, the ability of four reagents (anti-CX3CR1 rabbit antiserum, anti-CX3CR1 monoclonal antibody (2A9-1), Fkn and a 76 amino acid 125-I-Fkn polypeptide containing the CX3C domain) that bind to CX3CR1 to block G glycoprotein binding to 293-CX3CR1 cells was examined. In addition, to determine if binding of G glycoprotein to 293-CX3CR1 cells was dependent upon the CX3C motif, G glycoprotein peptides with a single residue insertion (Δ+1) or deletion (Δ−1) in the CX3C motif and also peptides that lacked or included the CX3C motif (Table 4) were generated. This panel of peptides was analyzed for their ability to block G glycoprotein or Fkn binding to 293-CX3CR1 cells.
(§3) Inhibition of Fkn and G glycoprotein binding to 293-CX3CR1 cells by treatment with monoclonal antibodies to G glycoprotein or CX3CR1, or treatment with G glycoprotein, Fkn, or G glycoprotein peptides in the presence or absence of heparin as described in Methods. […] The concentration of G glycoprotein was estimated using a molecular weight of 90 kD.

[2] = system: RSV; assay: RSV plaque reduction assay on Vero cells (Example 1); type: cell-based, RSV/A2
Description: Dilutions of Fkn (R&D systems), SDF-1 α (R&D systems), G glycoprotein, heparin (Sigma), G glycoprotein peptides and anti-CX3CR1 antibody were made in serum-free Dulbecco's Modified Eagle's Media (DMEM; GIBCO) containing 1% BSA (Sigma) and preincubated with the Vero cells for 1 h at 37° C. 50 μg of anti-CX3CR1 antibody or heat-inactivated (56° C., 30 min) normal rabbit sera (control) were used in all experiments. […] Dilutions of RSV were made in serum-free DMEM (GIBCO) and added to pretreated Vero cells for 2 h at 37° C. Following virus infection, DMEM (GIBCO) containing 10% FBS (Hyclone, Logan, Utah) was added to the wells. Plaques were enumerated using immunostaining for F and G glycoproteins using biotinylated monoclonal antibodies 131-2A (anti-F glycoprotein) and 130-2G (anti-G glycoprotein) as described^45.
RSV plaque reduction following treatment with G glycoprotein, Fkn, G glycoprotein peptides, anti-CX3CR1 antibody, SDF-1-α and/or heparin as described in Methods. Percent inhibition was determined from the mean plaque forming units (pfu) of treated Vero cells over saline-treated Vero cells using a dilution of RSV that would produce 40-80 pfu. p-values were determined using unpaired two-tailed analysis where p<0.05 is significant. The concentration of G glycoprotein was estimated using a molecular weight of 90 kD.

[3] = biological target: T1, Fkn binding to 293-CX3CR1 cells (Homo sapiens, UniProt P49238); details: no heparin
T1 construct: host or cells: HEK 293 cells stably transfected with CX3CR1
Description: All binding studies were done on ice and either G glycoprotein or human Fkn (R&D Diagnostics, Minneapolis, Minn.) were diluted between 1 nM-100 nM in PBS (GIBCO) containing 1% bovine serum albumin (Sigma) and incubated with the 293-CX3CR1 cells or 293 control cells for 30 min at 4° C. […] For inhibition studies, 100 pM-1 μM human Fkn or G glycoprotein was preincubated with the cells for 30 min at 4° C. Without washing, 100 pM of either Fkn or G glycoprotein was added and incubated for 30 min at 4° C. The cells were washed, blocked with FcγRIII blocking antibody (HB197) for 30 min on ice, washed and stained as appropriate with either an anti-G glycoprotein monoclonal antibody cocktail (132-5B, 132-5G, 130-2G, 232-IF) or a biotinylated anti-G glycoprotein monoclonal antibody cocktail (130-2G, 131-2G) or anti-Fkn monoclonal antibody (51637.11; R&D Diagnostics). Concentrations of 1 μg of anti-G glycoprotein monoclonal antibody (131-2G)^34, rabbit anti-CX3CR1 sera^33, and anti-CX3CR1 monoclonal antibody containing 10 μg/ml heparin were used in all experiments. […] Staining was detected with absorbed FITC-goat anti-mouse (H & L chain) monoclonal antibody (PharMingen, San Diego, Calif.) or streptavidin-PE (PharMingen) using flow cytometry (FACScan, Becton-Dickinson, Mountain View, Calif.). A 76 amino acid ^125I-Fkn polypeptide comprising the […] (NEN, Boston, Mass.) was used in radioligand studies^33. As a control, the void volume following purified G glycoprotein passaged over an anti-G glycoprotein antibody (130-2G) affinity column was examined by flow cytometry for binding to either 293 or 293-CX3CR1 cells.
as §1, §2, §3

T1 sequence (P49238 whole entry): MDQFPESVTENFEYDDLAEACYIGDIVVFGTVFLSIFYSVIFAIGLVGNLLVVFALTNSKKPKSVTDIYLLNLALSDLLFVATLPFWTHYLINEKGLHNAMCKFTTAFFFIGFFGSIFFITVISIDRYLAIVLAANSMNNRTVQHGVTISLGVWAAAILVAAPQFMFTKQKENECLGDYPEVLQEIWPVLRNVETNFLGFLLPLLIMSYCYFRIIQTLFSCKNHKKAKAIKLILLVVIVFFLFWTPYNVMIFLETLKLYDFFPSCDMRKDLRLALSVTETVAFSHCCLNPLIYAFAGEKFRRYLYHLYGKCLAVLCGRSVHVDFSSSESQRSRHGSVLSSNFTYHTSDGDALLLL

Fkn: CX3C chemokine fractalkine (R&D), ligand of CX3CR1 [reference compound]
Range of Inhibition (%) of G glycoprotein binding ([1]; heparin 5 μg/ml + Fractalkine 10 nM): 85-98%
Range of Inhibition (%) of G glycoprotein binding ([1]; inhibitor 100 pM, no heparin): 2-5%
Range of Inhibition (%) of G glycoprotein binding ([1]; inhibitor 10 nM, no heparin): 8-15%
Range of Inhibition (%) of G glycoprotein binding ([1]; inhibitor 1 μM, no heparin): 20-34%
plaque inhibition (%) ([2]; 100 pM): 0%
plaque inhibition (%) ([2]; 1 nM): 31%
plaque inhibition (%) ([2]; 10 nM): 80%
plaque inhibition (%) ([2]; heparin 5 μg/ml + Fkn 10 nM): 97%

NKKPGKKTTTKP [RT34]
Range of Inhibition (%) of G glycoprotein binding ([1]; inhibitor 1 μM, no heparin): 4-18%
Range of Inhibition (%) of Fkn binding ([3]; inhibitor 1 μM): 6-14%
plaque inhibition (%) ([2]; 1 μM): 6%

TCWACKRIPNK (TCWAIACKRIPNK) [Δ − 1]
percent staining of G glycoprotein on CX3CR1-293 cells in the presence of peptide [1]: 73%
Range of Inhibition (%) of G glycoprotein binding ([1]; inhibitor 1 μM, no heparin): 8-12%
Range of Inhibition (%) of Fkn binding ([3]; inhibitor 1 μM): 0-4%
plaque inhibition (%) ([2]; 1 μM): 0%

TCWAIACKRIPNK [Δ + 1]
percent staining of G glycoprotein on CX3CR1-293 cells in the presence of peptide [1]: 65%
Range of Inhibition (%) of G glycoprotein binding ([1]; inhibitor 1 μM, no heparin): 16-22%
Range of Inhibition (%) of Fkn binding ([3]; inhibitor 1 μM): 0-8%
plaque inhibition (%) ([2]; 1 μM): 30%

TCWAICKRIPNK [RT33]
Range of Inhibition (%) of G glycoprotein binding ([1]; heparin 5 μg/ml + peptide 1 μM): 85-94%
Range of Inhibition (%) of G glycoprotein binding ([1]; inhibitor 1 μM, no heparin): 35-42%
Range of Inhibition (%) of Fkn binding ([3]; inhibitor 1 μM): 18-27%
plaque inhibition (%) ([2]; 1 μM): 71%
plaque reduction by peptide alone ([2]; concentration not stated): 16%
plaque inhibition (%) ([2]; heparin 5 μg/ml + peptide 1 μM): 92%

VPCSICSNNPTC [RT32]
Range of Inhibition (%) of G glycoprotein binding ([1]; inhibitor 1 μM, no heparin): 8-14%
Range of Inhibition (%) of Fkn binding ([3]; inhibitor 1 μM): 6-12%
plaque inhibition (%) ([2]; 1 μM): 2%

B1: G glycoprotein: purified G glycoprotein isolated from RSV/A2-infected Vero cells (protein)
chain: MSKNKDQRTAKTLERTWDTLNHLLFISSCLYKLNLKSVAQITLSILAMIISTSLIIAAIIFIASANHKVTPTTAIIQDATSQIKNTTPTYLTQNPQLGISPSNPSEITSQITTILASTTPGVKSTLQSTTVKTKNTTTTQTQPSKPTTKQRQNKPPSKPNNDFHFEVFNFVPCSICSNNPTCWAICKRIPNKKPGKKTTTKPTKKPTLKTTKKDPKPQTTKSKEVPTTKPTEEPTINTTKTNIITTLLTSNTTGNPELTSQMETFHSTSSEGNPSPSQVSTTSEYPSQPSSPPNTPRQ
Range of Inhibition (%) of Fkn binding ([3]; inhibitor 100 pM): 5-8%
Range of Inhibition (%) of Fkn binding ([3]; inhibitor 10 nM): 32-38%
Range of Inhibition (%) of Fkn binding ([3]; inhibitor 1 μM): 50-58%
plaque inhibition (%) ([2]; 1 nM): 0%
plaque inhibition (%) ([2]; 10 nM): 49%
plaque inhibition (%) ([2]; 100 nM): 61%
plaque inhibition (%) ([2]; heparin 5 μg/ml + G glycoprotein 100 nM): 98%
